Data reported in PMC12300041, “Tricyclic Isatin Derivatives as Anti-Inflammatory Compounds with High Kinase Binding Affinity” (Molecules, 2025).

What was measured:
Assay in all cases: KINOMEscan
Type in all cases: binding
DYRK1A = target: T1, DYRK1A (Homo sapiens, UniProt Q13627); conditions: for Kd: DYRK1A, N.B.: no binding at concentrations up to 30 µM
T1 construct: purchased Eurofins Pharma Discovery (KINOMEscan)
Description: (§1) Kinase profiling was performed by KINOMEscan (Eurofins Pharma Discovery, San Diego, CA, USA), using a panel of 423 protein kinases, as described previously. Compounds were submitted for dissociation constant (Kd) determination toward several target kinases using KINOMEscan. […] Binding reactions were performed at room temperature for 1 h, and the fraction of kinase not bound to the test compound was determined by capture with an immobilized affinity ligand and quantified by quantitative polymerase chain reaction. The primary screening at fixed concentrations of the compound was performed in duplicate. For dissociation constant Kd determination, a 12-point half-log dilution series (a maximum concentration of 33 μM) was used.

HIPK3 = target: T2, HIPK3 (Homo sapiens, UniProt Q9H422); conditions: for Kd: HIPK3, N.B.: no binding at concentrations up to 30 µM
T2 construct: purchased Eurofins Pharma Discovery (KINOMEscan)
T2 sequence (Q9H422 whole entry): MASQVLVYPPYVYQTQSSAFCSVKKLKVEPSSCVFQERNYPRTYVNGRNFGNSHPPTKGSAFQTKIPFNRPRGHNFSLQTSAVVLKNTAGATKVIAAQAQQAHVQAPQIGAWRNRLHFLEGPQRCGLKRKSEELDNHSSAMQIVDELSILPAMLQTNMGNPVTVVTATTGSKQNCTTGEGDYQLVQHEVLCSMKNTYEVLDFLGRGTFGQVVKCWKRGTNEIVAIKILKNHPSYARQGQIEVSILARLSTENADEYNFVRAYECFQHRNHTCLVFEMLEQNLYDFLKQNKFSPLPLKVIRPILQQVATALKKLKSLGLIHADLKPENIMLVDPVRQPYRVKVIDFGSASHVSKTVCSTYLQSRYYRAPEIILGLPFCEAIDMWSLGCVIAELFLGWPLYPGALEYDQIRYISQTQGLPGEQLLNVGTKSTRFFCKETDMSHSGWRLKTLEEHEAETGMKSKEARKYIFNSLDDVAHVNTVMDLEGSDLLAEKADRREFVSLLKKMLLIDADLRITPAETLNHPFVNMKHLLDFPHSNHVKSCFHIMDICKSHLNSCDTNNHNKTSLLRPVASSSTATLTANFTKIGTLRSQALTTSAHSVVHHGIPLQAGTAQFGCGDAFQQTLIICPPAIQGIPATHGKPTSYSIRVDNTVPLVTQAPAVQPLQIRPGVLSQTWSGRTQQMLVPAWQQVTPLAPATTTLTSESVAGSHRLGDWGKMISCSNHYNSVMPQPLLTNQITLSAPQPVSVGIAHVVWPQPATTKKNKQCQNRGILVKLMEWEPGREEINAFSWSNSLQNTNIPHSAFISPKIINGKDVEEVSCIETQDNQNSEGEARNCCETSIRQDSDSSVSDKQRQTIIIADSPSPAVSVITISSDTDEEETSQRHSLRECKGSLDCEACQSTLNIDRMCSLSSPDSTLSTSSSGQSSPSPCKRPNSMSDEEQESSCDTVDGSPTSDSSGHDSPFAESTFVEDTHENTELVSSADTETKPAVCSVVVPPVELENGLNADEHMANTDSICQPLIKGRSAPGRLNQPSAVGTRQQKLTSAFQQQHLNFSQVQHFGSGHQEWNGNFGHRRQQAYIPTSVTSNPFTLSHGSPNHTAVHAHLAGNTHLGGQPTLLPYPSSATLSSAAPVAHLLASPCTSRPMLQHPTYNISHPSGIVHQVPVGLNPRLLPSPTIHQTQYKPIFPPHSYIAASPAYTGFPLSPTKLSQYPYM
Description: as §1

DAPK2 = target: T3, DAPK2 (Homo sapiens, UniProt Q9UIK4); conditions: for Kd: DAPK2, N.B.: no binding at concentrations up to 30 µM
T3 construct: purchased Eurofins Pharma Discovery (KINOMEscan)
T3 sequence (Q9UIK4 whole entry): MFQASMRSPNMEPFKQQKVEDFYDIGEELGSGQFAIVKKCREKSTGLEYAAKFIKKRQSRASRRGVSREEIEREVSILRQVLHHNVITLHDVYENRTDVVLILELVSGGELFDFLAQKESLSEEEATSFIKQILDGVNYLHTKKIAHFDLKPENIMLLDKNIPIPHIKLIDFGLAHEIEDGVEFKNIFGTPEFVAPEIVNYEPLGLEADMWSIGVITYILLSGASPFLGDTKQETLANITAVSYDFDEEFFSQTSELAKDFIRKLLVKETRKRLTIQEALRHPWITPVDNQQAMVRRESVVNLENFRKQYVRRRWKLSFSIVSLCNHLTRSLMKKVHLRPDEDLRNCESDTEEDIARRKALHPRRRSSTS
Description: as §1

DAPK3 = target: T4, DAPK3 (Homo sapiens, UniProt O43293); conditions: for Kd: DAPK3, N.B.: no binding at concentrations up to 30 µM
T4 construct: purchased Eurofins Pharma Discovery (KINOMEscan)
T4 sequence (O43293 whole entry): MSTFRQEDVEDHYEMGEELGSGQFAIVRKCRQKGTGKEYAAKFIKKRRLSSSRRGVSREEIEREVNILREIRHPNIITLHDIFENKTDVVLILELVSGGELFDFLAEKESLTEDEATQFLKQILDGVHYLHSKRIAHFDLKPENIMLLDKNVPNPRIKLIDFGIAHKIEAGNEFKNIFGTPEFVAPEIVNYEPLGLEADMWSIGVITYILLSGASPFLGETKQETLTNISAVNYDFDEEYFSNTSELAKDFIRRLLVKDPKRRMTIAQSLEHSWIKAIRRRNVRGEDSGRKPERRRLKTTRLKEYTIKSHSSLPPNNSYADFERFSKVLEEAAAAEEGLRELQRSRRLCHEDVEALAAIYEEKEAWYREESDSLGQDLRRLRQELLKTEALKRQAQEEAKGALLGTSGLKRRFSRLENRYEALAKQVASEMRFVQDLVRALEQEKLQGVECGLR
Description: as §1

NEK10 = target: T5, NEK10 (Homo sapiens, UniProt Q6ZWH5); conditions: for Kd: NEK10, N.B.: no binding at concentrations up to 30 µM
T5 construct: purchased Eurofins Pharma Discovery (KINOMEscan)
T5 sequence (Q6ZWH5 1-1172): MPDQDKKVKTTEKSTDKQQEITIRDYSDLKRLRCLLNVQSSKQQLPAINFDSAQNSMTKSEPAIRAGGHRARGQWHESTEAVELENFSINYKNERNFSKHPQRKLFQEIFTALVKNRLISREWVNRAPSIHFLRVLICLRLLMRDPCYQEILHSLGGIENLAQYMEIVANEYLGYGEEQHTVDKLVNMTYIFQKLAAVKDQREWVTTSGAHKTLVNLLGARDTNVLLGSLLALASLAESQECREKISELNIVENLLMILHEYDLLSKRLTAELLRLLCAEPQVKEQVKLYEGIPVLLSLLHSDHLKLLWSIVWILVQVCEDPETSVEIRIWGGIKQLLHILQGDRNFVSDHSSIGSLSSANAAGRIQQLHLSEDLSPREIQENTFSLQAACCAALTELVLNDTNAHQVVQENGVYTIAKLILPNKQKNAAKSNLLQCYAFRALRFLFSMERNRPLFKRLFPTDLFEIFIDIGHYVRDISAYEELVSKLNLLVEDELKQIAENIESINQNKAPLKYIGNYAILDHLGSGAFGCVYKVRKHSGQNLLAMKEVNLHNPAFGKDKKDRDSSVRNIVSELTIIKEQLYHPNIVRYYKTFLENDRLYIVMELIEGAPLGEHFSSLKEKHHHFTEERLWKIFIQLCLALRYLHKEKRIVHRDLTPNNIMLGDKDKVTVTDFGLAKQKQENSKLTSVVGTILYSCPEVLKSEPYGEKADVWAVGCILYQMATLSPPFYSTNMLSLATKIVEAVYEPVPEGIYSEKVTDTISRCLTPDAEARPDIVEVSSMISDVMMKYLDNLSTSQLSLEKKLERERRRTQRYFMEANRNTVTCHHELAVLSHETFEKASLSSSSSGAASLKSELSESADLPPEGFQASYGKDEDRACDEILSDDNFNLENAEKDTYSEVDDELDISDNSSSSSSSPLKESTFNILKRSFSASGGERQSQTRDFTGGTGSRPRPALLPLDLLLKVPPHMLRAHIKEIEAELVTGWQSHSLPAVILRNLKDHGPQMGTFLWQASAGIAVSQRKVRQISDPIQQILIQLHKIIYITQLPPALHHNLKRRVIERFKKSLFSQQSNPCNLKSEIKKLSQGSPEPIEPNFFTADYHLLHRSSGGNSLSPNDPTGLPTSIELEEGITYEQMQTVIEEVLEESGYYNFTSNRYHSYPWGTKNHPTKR
Description: as §1

PIM1 = target: T6, PIM1 (Homo sapiens, UniProt P11309); conditions: for Kd: PIM1, N.B.: no binding at concentrations up to 30 µM
T6 construct: purchased Eurofins Pharma Discovery (KINOMEscan)
T6 sequence (P11309 whole entry): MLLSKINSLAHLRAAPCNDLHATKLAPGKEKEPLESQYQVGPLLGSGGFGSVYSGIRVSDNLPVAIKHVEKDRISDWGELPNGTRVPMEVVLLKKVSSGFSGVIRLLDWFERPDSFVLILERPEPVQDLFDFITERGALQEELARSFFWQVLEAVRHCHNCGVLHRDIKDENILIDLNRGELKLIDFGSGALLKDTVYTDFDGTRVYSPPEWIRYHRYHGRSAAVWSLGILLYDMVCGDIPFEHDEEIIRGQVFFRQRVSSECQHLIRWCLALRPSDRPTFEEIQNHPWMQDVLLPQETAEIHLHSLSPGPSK
Description: as §1

HASPIN = target: T7, HASPIN (Homo sapiens, UniProt Q8TF76); conditions: for Kd: Haspin, N.B.: no binding at concentrations up to 30 µM
T7 construct: purchased Eurofins Pharma Discovery (KINOMEscan)
T7 sequence (Q8TF76 1-798): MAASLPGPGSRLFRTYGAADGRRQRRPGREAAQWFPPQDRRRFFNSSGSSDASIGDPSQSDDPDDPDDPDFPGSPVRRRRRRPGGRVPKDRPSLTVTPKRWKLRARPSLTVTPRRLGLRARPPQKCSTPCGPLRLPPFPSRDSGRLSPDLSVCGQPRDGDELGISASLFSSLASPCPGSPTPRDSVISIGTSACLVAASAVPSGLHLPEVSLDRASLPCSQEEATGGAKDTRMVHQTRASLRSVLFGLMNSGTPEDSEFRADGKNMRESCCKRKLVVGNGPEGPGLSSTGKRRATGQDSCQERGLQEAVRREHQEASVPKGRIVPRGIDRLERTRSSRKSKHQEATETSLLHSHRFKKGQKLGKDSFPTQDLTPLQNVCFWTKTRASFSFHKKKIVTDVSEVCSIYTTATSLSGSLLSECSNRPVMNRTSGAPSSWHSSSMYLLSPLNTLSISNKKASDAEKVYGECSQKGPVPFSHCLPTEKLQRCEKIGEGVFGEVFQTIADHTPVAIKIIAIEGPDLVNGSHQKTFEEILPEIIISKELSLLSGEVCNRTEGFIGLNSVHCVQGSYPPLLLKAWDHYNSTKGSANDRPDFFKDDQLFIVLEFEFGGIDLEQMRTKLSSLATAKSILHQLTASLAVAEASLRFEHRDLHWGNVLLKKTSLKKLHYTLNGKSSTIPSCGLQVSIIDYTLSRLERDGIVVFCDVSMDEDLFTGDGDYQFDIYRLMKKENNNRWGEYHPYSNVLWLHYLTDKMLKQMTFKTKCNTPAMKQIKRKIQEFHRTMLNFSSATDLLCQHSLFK
Description: as §1

DYRK1B = target: T8, DYRK1B (Homo sapiens, UniProt Q9Y463)
T8 construct: purchased Eurofins Pharma Discovery (KINOMEscan)
T8 sequence (Q9Y463 whole entry): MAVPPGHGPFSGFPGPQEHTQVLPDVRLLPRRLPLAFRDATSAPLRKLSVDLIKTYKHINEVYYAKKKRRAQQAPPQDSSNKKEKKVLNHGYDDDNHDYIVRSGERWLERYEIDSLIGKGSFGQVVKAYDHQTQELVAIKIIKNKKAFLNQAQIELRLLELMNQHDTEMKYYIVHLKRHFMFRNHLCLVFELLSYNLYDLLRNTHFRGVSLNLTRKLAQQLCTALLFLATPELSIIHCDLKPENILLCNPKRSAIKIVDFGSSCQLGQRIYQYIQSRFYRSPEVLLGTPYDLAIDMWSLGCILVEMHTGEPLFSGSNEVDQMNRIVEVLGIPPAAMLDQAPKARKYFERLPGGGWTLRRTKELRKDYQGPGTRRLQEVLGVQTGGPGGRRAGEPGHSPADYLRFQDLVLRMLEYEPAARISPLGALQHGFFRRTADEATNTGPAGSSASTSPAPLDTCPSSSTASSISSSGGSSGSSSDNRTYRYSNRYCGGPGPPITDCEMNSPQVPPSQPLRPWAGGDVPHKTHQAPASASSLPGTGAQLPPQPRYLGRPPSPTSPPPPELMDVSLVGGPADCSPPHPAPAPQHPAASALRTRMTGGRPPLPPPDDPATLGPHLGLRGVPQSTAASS
Description: as §1

HIPK2 = target: T9, HIPK2 (Homo sapiens, UniProt Q9H2X6); conditions: for Kd: HIPK2, N.B.: no binding at concentrations up to 30 µM
T9 construct: purchased Eurofins Pharma Discovery (KINOMEscan)
T9 sequence (Q9H2X6 whole entry): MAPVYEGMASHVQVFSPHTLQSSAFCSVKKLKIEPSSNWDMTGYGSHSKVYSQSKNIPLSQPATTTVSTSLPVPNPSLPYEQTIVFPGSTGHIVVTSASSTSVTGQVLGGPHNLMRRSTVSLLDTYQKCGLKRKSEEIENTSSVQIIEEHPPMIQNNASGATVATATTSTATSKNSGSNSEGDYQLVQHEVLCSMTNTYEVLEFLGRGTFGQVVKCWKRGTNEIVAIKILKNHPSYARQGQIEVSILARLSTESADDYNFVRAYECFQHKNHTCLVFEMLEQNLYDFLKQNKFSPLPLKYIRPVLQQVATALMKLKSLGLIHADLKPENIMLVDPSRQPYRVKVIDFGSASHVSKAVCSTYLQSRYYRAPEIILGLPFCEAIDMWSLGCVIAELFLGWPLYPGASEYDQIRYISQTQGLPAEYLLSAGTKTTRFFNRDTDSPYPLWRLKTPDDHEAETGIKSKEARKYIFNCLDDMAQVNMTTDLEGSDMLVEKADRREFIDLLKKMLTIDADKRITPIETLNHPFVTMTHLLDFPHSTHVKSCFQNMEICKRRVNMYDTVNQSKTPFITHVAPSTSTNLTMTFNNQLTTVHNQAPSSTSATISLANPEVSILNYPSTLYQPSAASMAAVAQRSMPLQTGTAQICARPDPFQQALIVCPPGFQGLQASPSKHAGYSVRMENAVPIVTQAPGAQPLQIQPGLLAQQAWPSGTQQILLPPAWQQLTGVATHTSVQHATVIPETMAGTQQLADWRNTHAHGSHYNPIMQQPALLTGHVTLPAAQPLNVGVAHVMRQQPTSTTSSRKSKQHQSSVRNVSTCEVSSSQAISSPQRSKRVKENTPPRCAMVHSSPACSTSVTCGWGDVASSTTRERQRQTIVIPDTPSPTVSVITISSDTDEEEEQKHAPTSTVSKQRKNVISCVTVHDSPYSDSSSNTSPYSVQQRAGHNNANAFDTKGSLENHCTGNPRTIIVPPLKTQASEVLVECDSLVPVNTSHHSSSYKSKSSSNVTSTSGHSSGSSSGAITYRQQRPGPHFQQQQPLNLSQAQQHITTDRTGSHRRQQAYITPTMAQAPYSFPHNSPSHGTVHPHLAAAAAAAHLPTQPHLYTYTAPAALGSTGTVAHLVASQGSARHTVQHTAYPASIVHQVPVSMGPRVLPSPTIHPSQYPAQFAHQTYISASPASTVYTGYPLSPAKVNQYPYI
Description: as §1

[1] = DYRK1B, N.B.: no binding at concentrations up to 30 µM

SMILES	Kd (DYRK1A) [nM]	Kd (HIPK3) [nM]	Kd (DAPK2) [nM]	Kd (DAPK3) [nM]	Kd (NEK10) [nM]	Kd (PIM1) [nM]	Kd (HASPIN) [nM]	Kd (µM) (DYRK1B; [1])	Kd (HIPK2) [nM]	inhibition at 10 µM (DYRK1A; 10 μM) [%]	inhibition at 10 µM (HIPK3; 10 μM) [%]	inhibition at 10 µM (DAPK2; 10 μM) [%]	inhibition at 10 µM (DAPK3; 10 μM) [%]	inhibition at 10 µM (NEK10; 10 μM) [%]	inhibition at 10 µM (PIM1; 10 μM) [%]	inhibition at 10 µM (HASPIN; 10 μM) [%]	inhibition at 10 µM (DYRK1B; 10 μM) [%]	Kd (DYRK1B; [1]) [nM]	inhibition at 10 µM (HIPK2; 10 μM) [%]
O=C1Nc2c(ccc3c2CCCC3)C1=NO [Compound 5a, 3-(Hydroxyimino)-1,3,6,7,8,9-hexahydro-2H-benzo[g]indol-2-one]	850 ± 120	1300 ± 300	7700 ± 1100	20500 ± 3500	3200 ± 1000	1800 ± 100	610 ± 80	N.B.	730 ± 640	–	–	–	–	–	–	–	–	–	–
O=C1Nc2c(cc([N+](=O)[O-])c3c2CCCC3)C1=NO [Compound 5d, 3-(Hydroxyimino)-5-nitro-1,3,6,7,8,9-hexahydro-2H-benzo[g]indol-2-one]	435 ± 78	135 ± 70	200 ± 42	590 ± 28	660 ± 71	122 ± 54	165 ± 21	–	295 ± 92	98.8	100	98.9	98.5	100	98.2	99.5	96.4	470 ± 20	99.7
